The target of this assay is T1, Rhesus PDE2A3 (Macaca mulatta, UniProt B3VTJ2).
T1 construct: made in house; host or cells: AD293 cells, transient transfection, pcDNA3.3-TOPO; lysate supernatant used as enzyme
T1 sequence (B3VTJ2 1-941): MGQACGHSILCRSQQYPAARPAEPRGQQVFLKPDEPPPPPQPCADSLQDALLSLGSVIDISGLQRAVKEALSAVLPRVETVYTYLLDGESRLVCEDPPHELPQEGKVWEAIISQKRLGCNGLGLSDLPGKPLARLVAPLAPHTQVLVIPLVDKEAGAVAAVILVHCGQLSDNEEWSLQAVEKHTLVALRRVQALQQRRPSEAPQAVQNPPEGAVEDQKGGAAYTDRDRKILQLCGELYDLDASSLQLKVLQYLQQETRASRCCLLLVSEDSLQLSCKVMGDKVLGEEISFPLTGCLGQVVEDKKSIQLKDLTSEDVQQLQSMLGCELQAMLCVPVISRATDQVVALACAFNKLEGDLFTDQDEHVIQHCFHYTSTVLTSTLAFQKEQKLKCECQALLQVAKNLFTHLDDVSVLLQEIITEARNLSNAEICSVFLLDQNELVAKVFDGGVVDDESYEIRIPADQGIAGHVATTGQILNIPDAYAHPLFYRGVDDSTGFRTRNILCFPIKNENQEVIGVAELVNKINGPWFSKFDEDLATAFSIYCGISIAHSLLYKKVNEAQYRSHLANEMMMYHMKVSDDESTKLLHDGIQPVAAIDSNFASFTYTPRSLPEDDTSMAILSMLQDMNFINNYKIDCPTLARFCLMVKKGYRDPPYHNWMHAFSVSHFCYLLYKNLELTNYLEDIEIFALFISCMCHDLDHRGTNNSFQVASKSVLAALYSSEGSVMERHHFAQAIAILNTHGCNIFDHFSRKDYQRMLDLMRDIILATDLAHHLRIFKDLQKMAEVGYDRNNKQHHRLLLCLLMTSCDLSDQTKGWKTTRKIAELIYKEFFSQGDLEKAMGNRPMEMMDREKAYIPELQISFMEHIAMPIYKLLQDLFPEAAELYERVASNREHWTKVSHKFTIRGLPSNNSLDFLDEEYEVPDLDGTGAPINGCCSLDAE
Description: PDE2 fluorescence polarization (IMAP FP) inhibition assay, rhesus enzyme. It counts as biochemical, rhesus macaque. An outline of the steps:
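Lysate of AD293 cells transiently expressing rhesus PDE2A3, diluted for ~20% substrate conversion, with 50 nM FAM-cAMP and 1 uM cGMP activator in pH 7.2 Tris/MgCl2 buffer, 60 min at room temperature.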
In general terms: Fluorescence polarisation rises when a labelled molecule tumbles more slowly, as on binding a larger partner.

The mark [1] stands for this setting: Lab A, read-out: Rhesus PDE2 Ki (nM) Lab A.
Setting [2] is: Lab B, read-out: Rhesus PDE2 Ki (nM) Lab B.

Read-outs that look alike come from different tables or passages of the source.

With `Cc1nc(-c2cnn(C(C)c3ccc(C(F)(F)F)cc3C)c2)cc(=O)[nH]1` (single isomer, unassigned) [Example 57, (S)- or (R)-2-methyl-6-(1-(1-(2-methyl-4-(trifluoromethyl)phenyl)ethyl)-1H-pyrazol-4-yl)pyrimidin-4(3H)-one], the Ki (commonly the equilibrium dissociation constant of an inhibitor or competing ligand from its target) was 13.1 nM under setting [1] and 13 nM under setting [2]. Regarding `Cc1nc(-c2cnn(C(C)c3ccc(C4CC4)cc3C)c2)cc(=O)[nH]1` (single isomer, unassigned) [Example 94, (S)- or (R)-6-(1-(1-(4-cyclopropyl-2-methylphenyl)ethyl)-1H-pyrazol-4-yl)-2-methylpyrimidin-4(3H)-one], under setting [1], the inhibition constant Ki is 40.8 nM. Turning to `Cc1nc(-c2cnn(C(C)c3ccc(C(F)(F)F)cc3)c2C)cc(=O)[nH]1` (single isomer, unassigned) [Example 81, (R)- or (S)-2-methyl-6-(5-methyl-1-(1-(4-(trifluoromethyl)phenyl)ethyl)-1H-pyrazol-4-yl)pyrimidin-4(3H)-one], the inhibitory constant (Ki) under setting [2] was determined as 232 nM. Still for that read-out and setting: the figure for `Cc1nc(-n2ccc([C@H](C)c3ccc(C(F)(F)F)cc3)n2)cc(=O)[nH]1` (single isomer, unassigned) [Example 6] is 466 nM.

The values above are taken from patent publication US10287269B2, “Pyrazolyl pyrimidinone compounds as PDE2 inhibitors” (Merck Sharp & Dohme Corp., priority 2015, dated 2019).
